{"source": "patent US20220288114A1", "about": "“MULTI-AGENT OCULAR FORMULATIONS AND TREATMENT METHODS” (University of Utah Research Foundation, priority 2019, published 2022)", "key": {"guinea pigs": {"system": "guinea pigs", "assay": "Refractive error by streak retinoscopy in guinea pigs, 60-day atropine eye drop treatment", "format": "in vivo", "details": ".001% eye drops 2 times per day for approximately 60 days", "quoted_text": "Treatment using .001% atropine sulfate monohydrate eye drops is administered at approximately 1 week of age to guinea pigs. The eye drops are administered 2 times per day for approximately 60 days. Refractive error is measured by an ophthalmologist prior to treatment on day 1 and at subsequent time-points (e.g., 14 days, 27 days, 44 days, and 62 days after the beginning of treatment) depicted in FIGS. 1A-1C. […] Stable refractive errors are typically obtained after 15 minutes when there is no pupil response."}, "cornea": {"system": "cornea", "details": "rabbits", "text": "The Ocular Response Analyzer (ORA; Reichert, Inc, Buffalo, N.Y.) is a commercially available noncontact tonometer that also assesses the viscoelastic nature of the cornea with bidirectional detection of applanation events to allow in vivo measurements of corneal biomechanical response parameters under air puff loading 42. The system includes an infrared emitter and detector aligned such that applanation produces a spike on the detector with a mirror like reflection from the flattened corneal surface.\nTwo applanation pressure measurements are reported by the ORA: one while the cornea moves inward, reaching first applanation, at pressure P1, and the other after the cornea recovers from a slight concavity as it moves outward passing through a second applanation at pressure P2. Therefore, these two values, P1 and P2, indicate the pressures associated with a flattened cornea during the loading and unloading cycle, with P2<P1 for a valid measurement. The difference between P1 and P2 is termed corneal hysteresis (CH).\nA greater value for Peak 1 or Peak 2 indicates a larger area of applanation which is associated with a stiffer response. Thus, for the current study the\nORA pressure and applanation signals were analyzed using custom software to determine the magnitudes of Peak 1 and Peak 2. ORA measurements were assessed at baseline and every week for 6-8 weeks on the same set of rabbits described in 2.4.b which included 4 groups Sol A, Sol B, and vehicle and no drops. An increase in Peak 1 and Peak 2 can be present after stiffening; therefore, one-tailed t-tests were used for statistical analysis to compare groups.\nThe times at 3, 4, 5, and 6 weeks for the combined AB (treatment Sol A and treatment Sol B) treatment group were averaged for comparison against no therapy and vehicle. Peak 1 and Peak 2 were compared to both controls."}, "rabbits": {"system": "rabbits", "details": "0.15 mg/ml eye drops 2 times per day for approximately 60 days", "procedure": "Treatment using 0.15 mg/ml copper sulfate pentahydrate in an ophthalmic vehicle is administered at approximately 6 weeks of age to rabbits. Eyedrops are administered 2 times per day for approximately 60 days. Refractive error is measured by an ophthalmologist prior to treatment on day 1 and at subsequent time-points (e.g., 14 days, 27 days, 44 days, and 62 days after the beginning of treatment) depicted in FIG. 3. […] Stable refractive errors are typically obtained after 15 minutes when there is no pupil response. FIG. 3 presents refractive error measurements for the test subjects in each eye."}, "[1]": {"system": "LNL crosslinks in rabbit cornea", "details": "rabbits; 0.15 mg/ml eye drops twice a day for 6 weeks; LC-MS", "quoted_text": "After six weeks each group of corneas is dissected, weighed and used for LNL analysis. Samples are reduced with NaBH4 at room temperature then washed twice with water, dried, and hydrolyzed with 6N\nHCl in vacuo for 18 hours at 110° C. […] The hydrolysates are dried to evaporate HCL, reconstituted with H2O, and re-dried to remove residual HCl. Post hydrolysis, cross-link enrichment is carried out using a cellulose mini-column method. Samples are then provided for LNL analysis by mass spectroscopy (LC/MS).\nTo perform liquid chromatography/mass spectroscopy (LC/MS), 1 μL of 100 μg/mL d9-Lysine is added to all samples as an internal standard. A calibration curve is created using serial dilution. Semi-quantitative mass spectral analysis is performed using a Sciex 6500 Q-Trap (Sciex, Farmington, MA). A helicon iHILIC-Fusion 2.1×100 mm column (Umeå, Sweden) is used for chromatography using 10 mM NH4OAc (Buffer A) and ACN (Buffer B). LC/MS is performed in the positive mode with a TurboIon source using optimized source conditions. Quantitative data analysis is conducted using Sciex MultiQuant software."}}, "data": [{"smiles": "CN1[C@@H]2CC[C@H]1CC(OC(=O)C(CO)c1ccccc1)C2.CN1[C@@H]2CC[C@H]1CC(OC(=O)C(CO)c1ccccc1)C2.O.O=S(=O)(O)O", "note": "(some centres unmarked) [Atropine, atropine sulfate monohydrate]", "values": [{"measurement": "Progression of myopia (refractive error)", "setting": "guinea pigs", "value": "Slows Progression of Myopia"}]}, {"smiles": "O=S(=O)([O-])[O-].[Cu+2]", "note": "[Copper sulfate]", "values": [{"measurement": "Corneal stiffening in vivo as measured by waveform response to air puff deformation", "setting": "cornea; ORA", "value": "generates stiffening in vivo"}, {"measurement": "Peak 1, treated group AB versus no therapy", "setting": "cornea; weeks 3, 4, 5 and 6 averaged, combined Sol A and Sol B, one-tailed t-test p=0.0244", "value": "significantly greater than no therapy"}, {"measurement": "Peak 2, treated group AB versus vehicle", "setting": "cornea; weeks 3, 4, 5 and 6 averaged, combined Sol A and Sol B, p<0.0001", "value": "significantly greater"}, {"measurement": "Peak 2, treated group AB versus no therapy", "setting": "cornea; weeks 3, 4, 5 and 6 averaged, combined Sol A and Sol B, p=0.0098", "value": "significantly greater than no therapy"}, {"measurement": "Peak 1, treated group AB versus vehicle", "setting": "cornea; weeks 3, 4, 5 and 6 averaged, combined Sol A and Sol B, p=0.0763", "value": "no substantial difference"}]}, {"smiles": "O.O.O.O.O.O=S(=O)([O-])[O-].[Cu+2]", "note": "[copper sulfate pentahydrate]", "values": [{"measurement": "Reduction of myopic progression in the treatment eye compared to control", "setting": "rabbits", "value": "approximately 63%"}, {"measurement": "LNL crosslinks in treated rabbit cornea compared to control (no treatment) and vehicle group", "setting": "[1]", "value": "significant increases"}]}]}
